Patent publication US8461328B2, “Tricyclic heterocyclic compounds, compositions and methods of use thereof” (Genentech, Inc., priority 2010, dated 2013)

Assays:
Type in all cases: biochemical
JAK2 = target: T1, JAK2 (Homo sapiens, UniProt O60674); test: JAK2 inhibition (Table 4); settings: read-out: JAK2 Ki
T1 construct: made in house; host or cells: SF9 insect cells (baculovirus)

JAK1 = target: T2, JAK1 (Homo sapiens, UniProt P23458); test: JAK1 inhibition (Table 4); settings: read-out: JAK1 Ki
T2 construct: made in house; host or cells: SF9 insect cells (baculovirus)

TYK2 = target: T3, TYK2 (Homo sapiens, UniProt P29597); test: TYK2 inhibition (Table 4)
T3 construct: made in house; host or cells: SF9 insect cells (baculovirus)
T3 sequence (P29597 873-1187): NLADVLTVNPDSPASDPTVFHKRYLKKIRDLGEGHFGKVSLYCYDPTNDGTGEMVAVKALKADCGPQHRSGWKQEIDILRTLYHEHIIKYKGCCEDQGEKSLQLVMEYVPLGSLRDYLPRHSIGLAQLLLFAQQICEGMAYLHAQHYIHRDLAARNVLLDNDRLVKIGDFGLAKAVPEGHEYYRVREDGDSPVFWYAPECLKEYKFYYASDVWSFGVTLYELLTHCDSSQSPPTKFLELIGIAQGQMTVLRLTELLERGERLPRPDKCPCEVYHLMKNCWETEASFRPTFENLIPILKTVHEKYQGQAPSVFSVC

JAK3 = target: T4, JAK3 (Homo sapiens, UniProt P52333); test: JAK3 inhibition (Table 4); settings: read-out: JAK3 Ki
T4 construct: made in house; host or cells: SF9 insect cells (baculovirus)
T4 sequence (P52333 783-1124): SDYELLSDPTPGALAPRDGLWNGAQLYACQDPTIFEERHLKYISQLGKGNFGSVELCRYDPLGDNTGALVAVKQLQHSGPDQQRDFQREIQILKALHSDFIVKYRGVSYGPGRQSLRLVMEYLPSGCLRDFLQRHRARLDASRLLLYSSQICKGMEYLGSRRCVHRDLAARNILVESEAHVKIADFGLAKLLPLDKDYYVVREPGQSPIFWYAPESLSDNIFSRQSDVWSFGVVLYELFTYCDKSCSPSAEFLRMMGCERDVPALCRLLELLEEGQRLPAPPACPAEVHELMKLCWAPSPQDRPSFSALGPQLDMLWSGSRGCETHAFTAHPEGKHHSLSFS

T2 sequence (P23458 852-1154): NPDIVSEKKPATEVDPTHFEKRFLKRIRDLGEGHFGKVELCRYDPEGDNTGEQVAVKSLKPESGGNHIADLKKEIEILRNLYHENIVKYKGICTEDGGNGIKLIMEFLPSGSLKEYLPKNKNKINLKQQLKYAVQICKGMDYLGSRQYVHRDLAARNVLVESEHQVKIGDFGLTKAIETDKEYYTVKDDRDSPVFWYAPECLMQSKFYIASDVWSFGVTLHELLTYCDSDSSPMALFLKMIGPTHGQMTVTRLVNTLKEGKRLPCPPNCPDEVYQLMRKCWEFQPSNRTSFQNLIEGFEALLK
T1 sequence (O60674 812-1132): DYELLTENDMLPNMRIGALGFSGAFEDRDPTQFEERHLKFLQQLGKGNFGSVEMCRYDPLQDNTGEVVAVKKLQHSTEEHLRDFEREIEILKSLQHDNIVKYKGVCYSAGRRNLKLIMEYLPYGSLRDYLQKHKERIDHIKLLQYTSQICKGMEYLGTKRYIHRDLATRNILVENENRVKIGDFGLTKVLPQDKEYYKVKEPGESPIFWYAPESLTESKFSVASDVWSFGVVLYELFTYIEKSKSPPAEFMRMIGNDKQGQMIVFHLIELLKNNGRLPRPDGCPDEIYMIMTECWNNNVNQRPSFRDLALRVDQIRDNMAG

Structure (SMILES)	Ki (JAK2) [µM]	Ki (JAK1) [µM]	Ki (TYK2) [µM]	Ki (JAK3) [µM]
CN1CCOCC1C(=O)N1CCC(n2cnc3cnc4[nH]ccc4c32)CC1 (single isomer, unassigned) [Example 197, (4-Methyl-morpholin-3-yl)-[4-(6H-1,2,3,5,6-tetraaza-as-indacen-1-yl)-piperidin-1-yl]-methanone]	0.202	0.0325	0.667	3.24
CN1CCOCC1C(=O)N1CCC(n2cnc3cnc4[nH]ccc4c32)CC1 (single isomer, unassigned) [Example 197a, (4-Methyl-morpholin-3-yl)-[4-(6H-1,2,3,5,6-tetraaza-as-indacen-1-yl)-piperidin-1-yl]-methanone]	0.217	0.122	2.72	1.93
OCc1nc2cnc3[nH]ccc3c2n1C1CCCOC1 (single isomer, unassigned) [Example 463, [1-(Tetrahydro-pyran-3-yl)-1,6-dihydro-1,3,5,6-tetraaza-as-indacen-2-yl]-methanol]	0.0749	0.0122	0.0555	0.191
OCc1nc2cnc3[nH]ccc3c2n1C1CCCOC1 (single isomer, unassigned) [Example 464, [1-(Tetrahydro-pyran-3-yl)-1,6-dihydro-1,3,5,6-tetraaza-as-indacen-2-yl]-methanol]	0.224	0.0569	0.187	0.412
CC(C)(C)OC(=O)NC1CCCC(n2cnc3cnc4[nH]ccc4c32)C1 (single isomer, unassigned) [Example 474, [3-(6H-1,3,5,6-Tetraaza-as-indacen-1-yl)-cyclohexyl]-carbamic acid tert-butyl ester]	0.0044	0.00207	0.0471	0.0196
CC(C)(C)OC(=O)NC1CCCC(n2cnc3cnc4[nH]ccc4c32)C1 (single isomer, unassigned) [Example 475, [3-(6H-1,3,5,6-Tetraaza-as-indacen-1-yl)-cyclohexyl]-carbamic acid tert-butyl ester]	0.11	0.0324	2.25	0.0219
CC(C)(C)OC(=O)NC1CCCC(n2cnc3cnc4[nH]ccc4c32)C1 (single isomer, unassigned) [Example 476, [3-(6H-1,3,5,6-Tetraaza-as-indacen-1-yl)-cyclohexyl]-carbamic acid tert-butyl ester]	0.0291	0.0123	0.302	0.0684
CC(C)(C)OC(=O)NC1CCCC(n2cnc3cnc4[nH]ccc4c32)C1 (single isomer, unassigned) [Example 477, [3-(6H-1,3,5,6-Tetraaza-as-indacen-1-yl)-cyclohexyl]-carbamic acid tert-butyl ester]	0.171	0.0407	0.799	0.236
CC(=O)NC1CCCC(n2cnc3cnc4[nH]ccc4c32)C1 (single isomer, unassigned) [Example 478, N-[3-(6H-1,3,5,6-Tetraaza-as-indacen-1-yl)-cyclohexyl]-acetamide]	0.125	0.0833	0.425	0.527
CC(=O)NC1CCCC(n2cnc3cnc4[nH]ccc4c32)C1 (single isomer, unassigned) [Example 479, N-[3-(6H-1,3,5,6-Tetraaza-as-indacen-1-yl)-cyclohexyl]-acetamide]	0.123	0.13	0.42	0.121

The next lines start with the values.

Ki (JAK2) [µM]	Ki (JAK1) [µM]	Ki (TYK2) [µM]	Ki (JAK3) [µM]	Structure (SMILES)
0.113	0.0241	0.186	0.331	NC1CCCC(n2cnc3cnc4[nH]ccc4c32)C1 (single isomer, unassigned) [Example 365, 3-(6H-1,3,5,6-Tetraaza-as-indacen-1-yl)-cyclohexylamine]
0.0698	0.0459	0.299	0.381	NC1CCCC(n2cnc3cnc4[nH]ccc4c32)C1 (single isomer, unassigned) [Example 366, 3-(6H-1,3,5,6-Tetraaza-as-indacen-1-yl)-cyclohexylamine]
0.0904	0.0422	0.157	0.453	NC1CCCC(n2cnc3cnc4[nH]ccc4c32)C1 (single isomer, unassigned) [Example 367, 3-(6H-1,3,5,6-Tetraaza-as-indacen-1-yl)-cyclohexylamine]
0.0193	0.0278	0.13	0.419	NC1CCCC(n2cnc3cnc4[nH]ccc4c32)C1 (single isomer, unassigned) [Example 368, 3-(6H-1,3,5,6-Tetraaza-as-indacen-1-yl)-cyclohexylamine]
0.0741	0.0893	0.341	0.0431	CC(C1CCCO1)n1cnc2cnc3[nH]ccc3c21 (single isomer, unassigned) [Example 417, 1-[1-(Tetrahydro-furan-2-yl)-ethyl]-1,6-dihydro-1,3,5,6-tetraaza-as-indacene]
0.0299	0.0348	0.173	0.0335	CC(C1CCCO1)n1cnc2cnc3[nH]ccc3c21 (single isomer, unassigned) [Example 418, 1-[1-(Tetrahydro-furan-2-yl)-ethyl]-1,6-dihydro-1,3,5,6-tetraaza-as-indacene]
0.0567	0.0596	0.335	0.0262	Cc1nc2cnc3[nH]ccc3c2n1C(C)C1CCCO1 (single isomer, unassigned) [Example 426, 2-Methyl-1-[1-(tetrahydro-furan-2-yl)-ethyl]-1,6-dihydro-1,3,5,6-tetraaza-as-indacene]
0.0599	0.034	0.127	0.282	c1cc2c(ncc3nnn(C4CCCOC4)c32)[nH]1 (single isomer, unassigned) [Example 459, 1-(Tetrahydro-pyran-3-yl)-1,6-dihydro-1,2,3,5,6-pentaaza-as-indacene]
0.0173	0.00836	0.0765	0.313	c1cc2c(ncc3nnn(C4CCCOC4)c32)[nH]1 (single isomer, unassigned) [Example 460, 1-(Tetrahydro-pyran-3-yl)-1,6-dihydro-1,2,3,5,6-pentaaza-as-indacene]
1.39	0.354	1.58	1.18	C[C@H](O)c1nc2cnc3[nH]ccc3c2n1C1CCCOC1 (single isomer, unassigned) [Example 461]
0.538	0.09	1.37	1.16	C[C@H](O)c1nc2cnc3[nH]ccc3c2n1C1CCCOC1 (single isomer, unassigned) [Example 462]
0.0499	0.0235	0.0706	0.0508	c1cc2c(ncc3ncn(C4CCCOC4)c32)[nH]1 (single isomer, unassigned) [Example 465, 1-(Tetrahydro-pyran-3-yl)-1,6-dihydro-1,3,5,6-tetraaza-as-indacene]
0.0246	0.00966	0.0618	0.0756	c1cc2c(ncc3ncn(C4CCCOC4)c32)[nH]1 (single isomer, unassigned) [Example 466, 1-(Tetrahydro-pyran-3-yl)-1,6-dihydro-1,3,5,6-tetraaza-as-indacene]
